Where two headings read alike, the source gives them in different places.
Biological target: T1, Rhesus PDE2A3 (Macaca mulatta, UniProt B3VTJ2)
T1 construct: made in house; host or cells: AD293 cells, transient transfection; supernatant of sonicated lysate
T1 sequence (B3VTJ2 1-941): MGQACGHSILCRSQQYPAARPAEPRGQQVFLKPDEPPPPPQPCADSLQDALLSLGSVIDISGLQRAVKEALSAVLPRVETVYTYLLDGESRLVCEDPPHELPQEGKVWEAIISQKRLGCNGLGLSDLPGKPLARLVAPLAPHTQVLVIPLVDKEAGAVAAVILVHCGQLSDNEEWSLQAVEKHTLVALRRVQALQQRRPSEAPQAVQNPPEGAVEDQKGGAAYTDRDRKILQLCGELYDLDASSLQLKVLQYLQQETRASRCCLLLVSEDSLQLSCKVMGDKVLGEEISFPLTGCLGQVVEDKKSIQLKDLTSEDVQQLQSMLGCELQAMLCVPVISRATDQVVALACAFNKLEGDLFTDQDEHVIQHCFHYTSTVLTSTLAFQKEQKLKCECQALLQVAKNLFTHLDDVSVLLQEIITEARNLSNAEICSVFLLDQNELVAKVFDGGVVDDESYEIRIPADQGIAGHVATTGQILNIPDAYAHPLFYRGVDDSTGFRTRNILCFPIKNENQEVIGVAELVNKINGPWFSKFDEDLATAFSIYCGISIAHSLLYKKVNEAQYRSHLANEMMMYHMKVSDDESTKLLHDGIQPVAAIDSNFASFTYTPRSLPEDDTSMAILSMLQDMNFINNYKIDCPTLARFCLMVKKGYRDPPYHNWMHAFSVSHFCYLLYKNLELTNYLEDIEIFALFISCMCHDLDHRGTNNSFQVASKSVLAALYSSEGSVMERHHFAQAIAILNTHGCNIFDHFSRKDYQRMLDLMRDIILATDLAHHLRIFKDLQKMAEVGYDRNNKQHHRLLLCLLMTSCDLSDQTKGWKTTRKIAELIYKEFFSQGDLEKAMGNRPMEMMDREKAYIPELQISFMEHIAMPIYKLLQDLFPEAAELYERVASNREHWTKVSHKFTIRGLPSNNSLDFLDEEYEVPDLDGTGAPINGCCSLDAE
Experiment: PDE2 fluorescence polarization (IMAP FP) inhibition assay, rhesus PDE2A3
Assay type: biochemical, rhesus macaque
In short: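 Enzyme source was the lysate supernatant of AD293 cells transiently expressing rhesus PDE2A3, diluted to give 20% conversion of 50 nM FAM-cAMP, with 1 µM cGMP as activator. Buffer was 10 mM Tris pH 7.2, 10 mM MgCl2, 1 mM DTT.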

[1] = Lab A, read-out: Rhesus PDE2 Ki (nM) Lab A
[2] = Lab B, read-out: Rhesus PDE2 Ki (nM) Lab B

In the case of `Cc1nc2c(c(CF)nn2C(C)c2ccc(OC(F)(F)F)c(F)c2)c(=O)[nH]1` (single isomer, unassigned) [Example 217, (S)- or (R)-1-(1-(3-Fluoro-4-(trifluoromethoxy)phenyl)ethyl)-3-(fluoromethyl)-6-methyl-1H-pyrazolo[3,4-d]pyrimidin-4(5H)-one], the Ki [1] is reported as 0.39 nM and the Ki [2] is reported as 0.53 nM.

Work on `Cc1nc2c(c(CO)nn2C(c2ccc(OC(F)(F)F)c(F)c2)C(C)C)c(=O)[nH]1` (single isomer, unassigned) [Example 127, (S)- or (R)-1-(1-(3-Fluoro-4-(trifluoromethoxy)phenyl)-2-methylpropyl)-3-(hydroxymethyl)-6-methyl-1H-pyrazolo[3,4-d]pyrimidin-4(5H)-one] yielded a Ki [2] of 0.9 nM.

In the case of `Cc1nc2c(c(CO)nn2C(c2ccc(OC(F)(F)F)cc2)C2CC2)c(=O)[nH]1` (single isomer, unassigned) [Example 95, (S)- or (R)-1-(Cyclopropyl(4-(trifluoromethoxy)phenyl)methyl)-3-(hydroxymethyl)-6-methyl-1H-pyrazolo[3,4-d]pyrimidin-4(5H)-one], the Ki [2] is reported as 2.1 nM.

Work on `Cc1nc2c(c(CO)nn2C(C)c2ccc(C(F)(F)F)c(F)c2)c(=O)[nH]1` (single isomer, unassigned) [Example 13, (S)- or (R)-1-(1-(3-Fluoro-4-(trifluoromethyl)phenyl)ethyl)-3-(hydroxymethyl)-6-methyl-1H-pyrazolo[3,4-d]pyrimidin-4(5H)-one] yielded a Ki [1] of 1.3 nM and a Ki [2] of 3 nM.

With `COCc1nc2c(c(CF)nn2C(C)c2ccc(C(F)(F)F)cc2)c(=O)[nH]1` (stereo not shown) [Example 205, 3-(Fluoromethyl)-6-(methoxymethyl)-1-{1-[4-(trifluoromethyl)phenyl]ethyl}-1,5-dihydro-4H-pyrazolo[3,4-d]pyrimidin-4-one] the Ki [2] was 3.2 nM.

`Cc1nc2c(c(CO)nn2[C@@H](C)c2ccc(OC(F)(F)F)cc2)c(=O)[nH]1` [Example 158, (S)-3-(Hydroxymethyl)-6-methyl-1-(1-(4-(trifluoromethoxy)phenyl)ethyl)-1H-pyrazolo[3,4-d]pyrimidin-4(5H)-one] gave a Ki [2] of 4.5 nM.

For `Cc1nn(C(C)c2ccc(C(F)(F)F)cc2)c2nc(-c3ccccn3)[nH]c(=O)c12` (stereo not shown) [Example 52, 3-Methyl-6-pyridin-2-yl-1-{1-[4-(trifluoromethyl)phenyl]ethyl}-1,5-dihydro-4H-pyrazolo[3,4-d]pyrimidin-4-one], the Ki [1] was 28 nM.

`Cc1nc2c(c(CO)nn2C(c2ccc(C(F)(F)F)cc2)C(F)(F)F)c(=O)[nH]1` (stereo not shown) [Example 6, 3-(Hydroxymethyl)-6-methyl-1-(2,2,2-trifluoro-1-(4-(trifluoromethyl)phenyl)ethyl)-1H-pyrazolo[3,4-d]pyrimidin-4(5H)-one] gave a Ki [1] of 1.6 nM and a Ki [2] of 3.5 nM.

`Cc1nc2c(c(CO)nn2[C@@H](C)c2ccc(C(C)(C)C)cc2)c(=O)[nH]1` [Example 157, (S)-1-(1-(4-tert-Butylphenyl)ethyl)-3-(hydroxymethyl)-6-methyl-1H-pyrazolo[3,4-d]pyrimidin-4(5H)-one] showed a Ki [2] of 0.96 nM.

`Cc1nc2c(c(CO)nn2C(C)c2ccc(C(F)(F)F)cc2)c(=O)[nH]1` (single isomer, unassigned) [Example 27, (S)- or (R)-3-(Hydroxymethyl)-6-methyl-1-{1-[4-(trifluoromethyl)phenyl]ethyl]-1,5-dihydro-4H-pyrazolo[3,4-d]pyrimidin-4-one] gave a Ki [1] of 2 nM and a Ki [2] of 2.1 nM.

`CCCc1nc2c(c(C)nn2C(C)c2ccc(C(F)(F)F)cc2)c(=O)[nH]1` (stereo not shown) [Example 41, 3-Methyl-6-propyl-1-{1-[4-(trifluoromethyl)phenyl]ethyl}-1,5-dihydro-4H-pyrazolo[3,4-d]pyrimidin-4-one] showed a Ki [1] of 64 nM.

Work on `Cc1nc2c(c(C(F)F)nn2C(C)c2ccc(C(F)(F)F)cc2)c(=O)[nH]1` (stereo not shown) [Example 166, 3-(Difluoromethyl)-6-methyl-1-{1-[4-(trifluoromethyl)phenyl]ethyl}-1,5-dihydro-4H-pyrazolo[3,4-d]pyrimidin-4-one] yielded a Ki [1] of 6.7 nM and a Ki [2] of 7.9 nM.

`Cc1nc2c(c(CO)nn2C(c2ccc(C(F)(F)F)cc2)C(C)C)c(=O)[nH]1` (stereo not shown) [Example 5, 3-(Hydroxymethyl)-6-methyl-1-(2-methyl-1-(4-(trifluoromethyl)phenyl)propyl)-1H-pyrazolo[3,4-d]pyrimidin-4(5H)-one] was tested, and the Ki [1] was 0.62 nM and the Ki [2] was 1 nM.

`COc1ccc(Cc2nc3c(c(CF)nn3C(C)c3ccc(C(F)(F)F)cc3)c(=O)[nH]2)cc1OC` (single isomer, unassigned) [Example 223, (S)- or (R)-6-(3,4-Dimethoxybenzyl)-3-(fluoromethyl)-1-(1-(4-(trifluoromethyl)phenyl)ethyl)-1,5-dihydro-4H-pyrazolo[3,4-d]pyrimidin-4-one] was tested, and the Ki [1] was 26 nM.

With `CCc1nc2c(c(C)nn2C(C)c2ccc(C(F)(F)F)cc2)c(=O)[nH]1` (stereo not shown) [Example 38, 6-Ethyl-3-methyl-1-{1-[4-(trifluoromethyl)phenyl]ethyl}-1,5-dihydro-4H-pyrazolo[3,4-d]pyrimidin-4-one] the Ki [1] was 58 nM.

For `COc1ccc(Cc2nc3c(c(CF)nn3C(C)c3ccc(C(F)(F)F)cc3)c(=O)[nH]2)cc1OC` (single isomer, unassigned) [Example 222, (R)- or (S)-6-(3,4-Dimethoxybenzyl)-3-(fluoromethyl)-1-(1-(4-(trifluoromethyl)phenyl)ethyl)-1,5-dihydro-4H-pyrazolo[3,4-d]pyrimidin-4-one], the Ki [1] was 0.17 nM and the Ki [2] was roughly 0.28 nM.

For `Cc1nn(C(C)c2ccc(C(F)(F)F)cc2)c2nc(CF)[nH]c(=O)c12` (stereo not shown) [Example 51, 6-(Fluoromethyl)-3-methyl-1-{1-[4-(trifluoromethyl)phenyl]ethyl}-1,5-dihydro-4H-pyrazolo[3,4-d]pyrimidin-4-one], the Ki [1] was 79 nM.

For `Cc1nc2c(c(C(C)O)nn2C(C)c2ccc(C(F)(F)F)cc2)c(=O)[nH]1` (stereo not shown) [Example 328, 3-(1-Hydroxyethyl)-6-methyl-1-{1-[4-(trifluoromethyl)phenyl]ethyl}-1,5-dihydro-4H-pyrazolo[3,4-d]pyrimidin-4-one], the Ki [1] was 22 nM and the Ki [2] was 33 nM.

In the case of `Cc1nc2c(c(CF)nn2C(C)c2ccc(C(F)(F)F)cc2)c(=O)[nH]1` (stereo not shown) [Example 204, 3-(Fluoromethyl)-6-methyl-1-{1-[4-(trifluoromethyl)phenyl]ethyl}-1,5-dihydro-4H-pyrazolo[3,4-d]pyrimidin-4-one], the Ki [1] is reported as 4 nM.

`Cc1nn(C(C)c2ccc(C(F)(F)F)cc2)c2nc(C(C)C)[nH]c(=O)c12` (stereo not shown) [Example 43, 3-Methyl-6-(1-methylethyl)-1-{1-[4-(trifluoromethyl)phenyl]ethyl}-1,5-dihydro-4H-pyrazolo[3,4-d]pyrimidin-4-one] gave a Ki [1] of 257 nM.

In the case of `Cc1nc2c(c(CO)nn2[C@H](c2ccc(C(C)(C)C)cc2)C(C)C)c(=O)[nH]1` [Example 159, (S)-1-(1-(4-tert-Butylphenyl)-2-methylpropyl)-3-(hydroxymethyl)-6-methyl-1H-pyrazolo[3,4-d]pyrimidin-4(5H)-one], the Ki [2] is reported as 2.8 nM.

Work on `COc1ccc(Cc2nc3c(c(C(F)F)nn3C(C)c3ccc(C(F)(F)F)cc3)c(=O)[nH]2)cc1OC` (single isomer, unassigned) [Example 197] yielded a Ki [2] of roughly 0.15 nM.

`Cc1nn(C(C)c2ccc(C(F)(F)F)cc2)c2nc(-c3ccco3)[nH]c(=O)c12` (stereo not shown) [Example 49, 6-Furan-2-yl-3-methyl-1-{1-[4-(trifluoromethyl)phenyl]ethyl}-1,5-dihydro-4H-pyrazolo[3,4-d]pyrimidin-4-one] showed a Ki [1] of 9 nM.

From patent publication US10160762B2, “6-alkyl dihydropyrazolopyrimidinone compounds as PDE2 inhibitors” (Merck Sharp & Dohme Corp., priority 2015, dated 2018)
